Results on 28 compounds are retold here after patent US11667651B2, “Aminopyridine derivatives as phosphatidylinositol phosphate kinase inhibitors” (HiberCell, Inc., priority 2017, dated 2023).

This assay deals with T1, PIP4K2A (Homo sapiens, UniProt P48426).
T1 sequence (P48426 1-406): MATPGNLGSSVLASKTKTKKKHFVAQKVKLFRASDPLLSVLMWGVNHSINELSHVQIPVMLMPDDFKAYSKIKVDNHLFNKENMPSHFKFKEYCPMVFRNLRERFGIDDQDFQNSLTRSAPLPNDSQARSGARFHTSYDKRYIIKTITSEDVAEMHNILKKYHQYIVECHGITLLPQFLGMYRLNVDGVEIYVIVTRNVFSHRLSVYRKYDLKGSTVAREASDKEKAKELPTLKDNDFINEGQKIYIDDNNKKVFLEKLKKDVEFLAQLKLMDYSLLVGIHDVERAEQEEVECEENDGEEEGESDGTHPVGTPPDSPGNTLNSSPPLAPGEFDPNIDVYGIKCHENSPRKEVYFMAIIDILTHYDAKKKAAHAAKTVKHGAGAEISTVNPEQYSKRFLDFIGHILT
The assay can be described thus: Kinase Assay PIP4K2 A (Table 2). Set-up: 4 nM PIP4K2A (full length protein, SignalChem); purchased SignalChem. Particulars: compounds listed under IC50 bins. The format is biochemical. The method, then: Dilution series of the compounds were prepared in DMSO at 100 times the final assay concentration (n1=n0/3 in 10 points). The compounds were further diluted to three times the assay concentration in assay buffer (20 mM MOPS pH 7.2, 25 mM magnesium chloride, 0.005% Tween 20). 6 μL of the diluted compounds were added to a 384 well assay plate followed by 9 μL of a mix consisting of 4 nM PIP4K2A (full length protein, SignalChem) and 100 μM PI(5)P diC8 (Tebu-Bio). Enzyme and compounds were pre-incubated at room temperature for 15 minutes.
Then 3 μL of a solution containing 60 μM ATP (Promega) in assay buffer was added to the wells containing compound and enzyme and mixing was performed by pipetting several times. The reaction was incubated at room temperature for 1 h. Then 18 μL of ADP-Glo™ Reagent (Promega) was added to stop the kinase reaction and deplete the unconsumed ATP, mixing was performed by pipetting several times. The plate was incubated at room temperature for 40 minutes before addition of 36 μL of Kinase Detection Reagent (Promega) to convert ADP to ATP and introduce luciferase and luciferin to detect ATP. The reaction was incubated at room temperature for 40 minutes before the luminescence was measured in a in a Victor 3V 1420 multilabel counter (Perkin Elmer).
Percent inhibition of the compounds as compared to dimethyl sulfoxide treated control samples was calculated. Compound concentration versus percent inhibition were fitted to generate IC50 values.

pIC50: −log10 of the molar value.

By pIC50 is commonly meant −log10 of the IC50, conventionally taken in molar units. A high value points to a small IC50. For `Cn1cnnc1-c1ccc(-c2ccc(Nc3cccnc3)nc2)cc1` [Example 65, 5-(4-(4-methyl-4H-1,2,4-triazol-3-yl)phenyl)-N-(pyridin-3-yl)pyridin-2-amine], the pIC50 was 6.00 to 7.00.

Regarding `CC(C)N(c1cncc(Nc2ccc(-c3ccc(C(=O)N(C)C)cc3)cn2)c1)S(C)(=O)=O` [Example 27, 4-(6-((5-(N-isopropylmethylsulfonamido)pyridin-3-yl)amino)pyridin-3-yl)-N,N-dimethylbenzamide], the pIC50 was 6.00 to 7.00.

Regarding `Cc1cc(-c2ccc(Nc3cccnc3)nc2)ccc1C(=O)N(C)C` [Example 10, N,N,2-trimethyl-4-(6-(pyridin-3-ylamino)pyridin-3-yl)benzamide], the pIC50 is less than 6.00.

`CN(C)C(=O)c1ccc(-c2ccc(Nc3ccc(=O)n(Cc4ccccc4)c3)nc2)cc1` [Example 54, 4-(6-((1-benzyl-6-oxo-1,6-dihydropyridin-3-yl)amino)pyridin-3-yl)-N,N-dimethylbenzamide] had a pIC50 of less than 6.00.

Turning to `CN(C)C(=O)c1ccc(-c2ccc(Nc3cncc(N4Cc5ccccc5C4=O)c3)nc2)cc1` [Example 53, N,N-dimethyl-4-(6-((5-(1-oxoisoindolin-2-yl)pyridin-3-yl)amino)pyridin-3-yl)benzamide], the pIC50 is 7.00 to 8.00.

`CC(=O)Nc1cncc(Nc2ccc(-c3ccc(C(=O)N(C)C)cc3)cn2)c1` [Example 31, 4-(6-((5-acetamidopyridin-3-yl)amino)pyridin-3-yl)-N,N-dimethylbenzamide] gave a pIC50 of 7.00 to 8.00.

As to `CN(C)C(=O)c1ccc(-c2ccc(Nc3cncc(N4CCN(CC5CC5)C4=O)c3)nc2)cc1` [Example 79, 4-(6-((5-(3-(cyclopropylmethyl)-2-oxoimidazolidin-1-yl)pyridin-3-yl)amino)pyridin-3-yl)-N,N-dimethylbenzamide], the pIC50 is 7.00 to 8.00.

`Cc1cc(C(=O)N(C)C)ccc1-c1ccc(Nc2cccnc2)nc1` [Example 2, N,N,3-trimethyl-4-(6-(pyridin-3-ylamino)pyridin-3-yl)benzamide] gave a pIC50 of less than 6.00.

For the compound `CN(C)C(=O)c1ccc(-c2cnc(Nc3cncc(N4CCCC4=O)c3)cn2)cc1F` [Example 20, 2-fluoro-N,N-dimethyl-4-(5-((5-(2-oxopyrrolidin-1-yl)pyridin-3-yl)amino)pyrazin-2-yl)benzamide], the pIC50 is 6.00 to 7.00.

For `CCN(C)C(=O)c1ccc(-c2ccc(Nc3cccnc3)nc2)cc1` [Example 68, N-ethyl-N-methyl-4-(6-(pyridin-3-ylamino)pyridin-3-yl)benzamide], the pIC50 was 6.00 to 7.00.

Regarding `COc1cncc(Nc2ccc(-c3ccc(C(=O)N(C)C)cc3)cn2)c1` [Example 39, 4-(6-((5-methoxypyridin-3-yl)amino)pyridin-3-yl)-N,N-dimethylbenzamide], the pIC50 was 6.00 to 7.00.

`CN(C)C(=O)c1ccc(-c2ccc(Nc3cncc(N4CCCC4=O)c3)nc2)cc1` [Example 38, N,N-dimethyl-4-(6-((5-(2-oxopyrrolidin-1-yl)pyridin-3-yl)amino)pyridin-3-yl)benzamide] gave a pIC50 of 7.00 to 8.00.

For the compound `CN(C)C(=O)Cc1cncc(Nc2ccc(-c3ccc(C(=O)N(C)C)cc3)cn2)c1` [Example 218, 4-(6-((5-(2-(dimethylamino)-2-oxoethyl)pyridin-3-yl)amino)pyridin-3-yl)-N,N-dimethylbenzamide], the pIC50 is 6.00 to 7.00.

In turn, `CC(=O)N1CCOc2ncc(Nc3ccc(-c4ccc(C(=O)N(C)C)cc4)cn3)cc21` [Example 43, 4-(6-((1-acetyl-2,3-dihydro-1H-pyrido[2,3-b][1,4]oxazin-7-yl)amino)pyridin-3-yl)-N,N-dimethylbenzamide] gave a pIC50 of 8.00 to 9.00.

With `CN(C)C(=O)c1ccc(-c2ccc(Nc3cncc(N(C)S(=O)(=O)C4CC4)c3)nc2)cc1` [Example 25, N,N-dimethyl-4-(6-((5-(N-methylcyclopropanesulfonamido)pyridin-3-yl)amino)pyridin-3-yl)benzamide], the pIC50 is 7.00 to 8.00.

Compound `CN(C)S(=O)(=O)c1ccc(-c2ccc(Nc3cccnc3)nc2)cc1` [Example 63, N,N-dimethyl-4-(6-(pyridin-3-ylamino)pyridin-3-yl)benzenesulfonamide] showed a pIC50 of 6.00 to 7.00.

As to `CN(C)C(=O)c1ccc(-c2cnc(Nc3cccnc3)nc2)cc1` [Example 264, N,N-dimethyl-4-(2-(pyridin-3-ylamino)pyrimidin-5-yl)benzamide], the pIC50 is 6.00 to 7.00.

As to `CN(C)C(=O)c1ccc(-c2ccc(Nc3cncc(CC(=O)NCc4cccnc4)c3)nc2)cc1` [Example 56, N,N-dimethyl-4-(6-((5-(2-oxo-2-((pyridin-3-ylmethyl)amino)ethyl)pyridin-3-yl)amino)pyridin-3-yl)benzamide], the pIC50 was 6.00 to 7.00.

The compound `CN(C)C(=O)c1ccc(-c2ccc(Nc3cncc(N(C)S(C)(=O)=O)c3)nc2)cc1` [Example 24, N,N-dimethyl-4-(6-((5-(N-methylmethylsulfonamido)pyridin-3-yl)amino)pyridin-3-yl)benzamide] showed a pIC50 of 7.00 to 8.00.

With `CN(C)C(=O)[C@H]1CC[C@@H](c2ccc(Nc3cccnc3)nc2)CC1` [Example 8, (1s,4s)-N,N-dimethyl-4-(6-(pyridin-3-ylamino)pyridin-3-yl)cyclohexane-1-carboxamide], the pIC50 is less than 6.00.

Take `CN(C)C(=O)c1ccc(-c2ccc(Nc3cccnc3)nc2)nc1` [Example 9, N,N-dimethyl-6′-(pyridin-3-ylamino)-[2,3′-bipyridine]-5-carboxamide]: the pIC50 was less than 6.00.

The compound `CN(Cc1cccnc1)C(=O)c1ccc(-c2ccc(Nc3cccnc3)nc2)cc1` [Example 70, N-methyl-4-(6-(pyridin-3-ylamino)pyridin-3-yl)-N-(pyridin-3-ylmethyl)benzamide] showed a pIC50 of less than 6.00.

For `CN(C)C(=O)c1ccc(-c2ccc(Nc3cnccn3)nc2)cc1` [Example 36, N,N-dimethyl-4-(6-(pyrazin-2-ylamino)pyridin-3-yl)benzamide], the pIC50 was less than 6.00.

`CC(=O)N(C)c1ccc(-c2ccc(Nc3cccnc3)nc2)cc1` [Example 64, N-methyl-N-(4-(6-(pyridin-3-ylamino)pyridin-3-yl)phenyl)acetamide] gave a pIC50 of less than 6.00.

Compound `CN(C)C(=O)C#Cc1ccc(Nc2cccnc2)nc1` [Example 4, N,N-dimethyl-3-(6-(pyridin-3-ylamino)pyridin-3-yl)propiolamide] had a pIC50 of less than 6.00.

For the compound `CN(C)C(=O)c1ccc(-c2cnc(Nc3cncc(N4CCCC4=O)c3)cn2)cc1` [Example 19, N,N-dimethyl-4-(5-((5-(2-oxopyrrolidin-1-yl)pyridin-3-yl)amino)pyrazin-2-yl)benzamide], the pIC50 is 6.00 to 7.00.

Compound `CN(C)C(=O)c1ccc(-c2ccc(Nc3cnc4ccn(S(C)(=O)=O)c4c3)nc2)cc1` [Example 42, N,N-dimethyl-4-(6-((1-(methylsulfonyl)-1H-pyrrolo[3,2-b]pyridin-6-yl)amino)pyridin-3-yl)benzamide] had a negative-log IC50 (pIC50) of 7.00 to 8.00.

With `CC(C)[C@@H]1NC(=O)N(c2cncc(Nc3ccc(-c4ccc(C(=O)N(C)C)cc4)cn3)c2)C1=O` [Example 57, (S)-4-(6-((5-(4-isopropyl-2,5-dioxoimidazolidin-1-yl)pyridin-3-yl)amino)pyridin-3-yl)-N,N-dimethylbenzamide], the pIC50 was 6.00 to 7.00.
